Assays:
[1] = administration of D-BHB, D-BHV and D-1,3BD in various ratios to human subjects at rest: circulating ketones and ketotic efficiency; type: in vivo; conditions: for Max change in mMol/L (increase in circulating ketone level): 10 g dose, three human subjects at rest; for 1 hour ketotic efficiency: 1 hour post-administration; for 1 hour ketotic efficiency / 2 hours ketotic efficiency: subject at rest; for 2 hours ketotic efficiency: 2 hours post-administration; for prolonged rise of blood ketone levels / sustained ketonemia: based on measured plasma levels of FIG. 1, subject at rest; for ketotic efficiency, rank in words: both 1 and 2 hours post-administration
Protocol: The administration of examples presented herein result in an increase in the circulating level of ketones in a human subject at rest that is greater than would result from the administration of (D)-β-hydroxybutyrate or (D)-1,3 butanediol alone over a duration of, for example, 120 minutes. Preferred examples include administration of a combination of D-BHB, D-BHV, and D-1,3BD in a therapeutically effective amount such that the rate change of circulating ketones in the blood of a human subject at rest is faster than the administration of an equivalent amount of either D-BHB or D-1,3BD administered alone. In one example, this includes the administration of a composition including a mixture of 43.2%% D-BHB, 1.8% D-BHV and 55% D-1,3BD. In another example, this includes the administration of a composition including a mixture of 52.8% DBHB, 2.2% D-BHV, and 45% D-1,3BD. In another example, this includes the administration of at composition including a mixture of 62.4% D-BHB, 2.6% D-BHV, and 35% D-1,3BD.
Examples include using a composition including D-BHB, D-BHV, and D-1,3BD in a subject at rest. The ketotic efficiency represents the net elevation of circulating ketones a ketone supplement affects over time in an individual. Ketotic efficiency may be represented as:
[formula] where mMol/L is the concentration of circulating 3-hydroxybutyrate in the blood, g is the total dose of the combined D-BHB, D-BHV, and D-1,3,BD in grams, kg is the mass of the individual in kilograms, and t is an increment of time in minutes.
While this example pertains to a fasted subject at rest, the relative utility of blended vs pure constituents has also been observed in fed and active subjects.
As illustrated by the examples of FIG. 1, these exemplary compositions can advantageously elevate circulating ketones by approximately two times greater than other known compositions. Such a composition can sustain ketonemia for longer than either D-BHB or D-1,3BD can when ingested alone by a subject of a given weight as shown by the 100% line (i.e., contains D-BHB, but not D-1,3BD) and the 0% line (i.e., contains only D-1,3BD, but not D-BHB).
As shown in the following table, the increase in circulating ketone level with a 10 g dose in three human subjects at rest was maximal at between 45-55% D-BHB in the tested compositions. […]

[2] = similar to lemon juice; cited from earlier work

Compound	Max change in mMol/L (increase in circulating ketone level) [1] [mmol/L]	1 hour ketotic efficiency [1] [kg·mmol·min/g/L]	2 hours ketotic efficiency [1] [kg·mmol·min/g/L]	prolonged rise of blood ketone levels / sustained ketonemia [1]	ketotic efficiency, rank in words [1]	pH [2]
CC(O)CC(=O)O (stereo not drawn) [100%, (D)-β-hydroxybutyric acid]	0.9	335	566	A similar result	lowest efficiency	2.5
CC(O)CCO (centres unmarked) [0%, (D)-1,3 butanediol]	0.8	266	462	does not cause a prolonged rise of blood ketone levels	lowest efficiency	
